Assays:
MC3T3 cells = assay: Biocompatibility (MTT cell viability) of GaAcAc in pre-osteoblastic cells; type: cell-based; details: GaAcAc 10-50 μg/mL, 37° C., vs untreated control
Procedure: (§1) RAW 264.7 (pre-osteoclast) and MC3T3 (pre-osteoblast) cells were cultured and maintained in DMEM & AMEM supplemented with 10% FBS and 1% PenStrep in a humidified incubator at 37° C. and 5% CO2 conditions. RAW and MC 3 T3 cells, upon 70-80% confluency, were gently detached using a cell scraper and/or 0.25% v/v trypsin/EDTA. The detached cell suspension was collected and centrifuged at 1500 RPM for 5 minutes and seeded accordingly to the requirement for each experiment.
(§2) After the stipulated time of incubation, cell viability was measured by MTT assay using untreated control cells as a reference.

[1] = system: murine hematopoietic stem cells (mHSCs); assay: OC differentiation of murine hematopoietic stem cells with M-CSF and RANKL; type: cell-based, C57BL/6 mice
Procedure: All mice were housed and maintained at Northeast Ohio Medical University according to the guidelines of the Institutional Animal Care and Use Committee. Bone marrow cells were flushed from the femora, and tibiae were extracted from euthanized C57BL/6 mice (male, 6-8 weeks) as described previously. Xing L. and B.F. Boyce, Methods Mol Biol, 1130: p. 307-313(2014). The flushed cells were incubated overnight to separate hematopoietic (in supernatant) and mesenchymal (adherent) stem cells. The supernatant was then collected and seeded at the required density based on the type of well plate used (96 well plate: 2×10^5 cells/well & 24 well plate: 1.5×10^6 cells per well-day 0) in culture media supplemented with 30 ng/ml of M-CSF. […] On day-6, fresh media supplemented with M-CSF & RANKL were added to the differentiating cells. On day-7, the plates were fixed and evaluated for TRAP activity and counted for the number of TRAP-stained multinucleated osteoclasts formed similarly as mentioned above.

OCs from RAW 264.7 cells = assay: Pit resorption assay on bovine cortical bone slices, OCs from RAW 264.7; type: cell-based, murine; details: vs positive control
Procedure: To assess the effects of various treatments on OC function, we assessed the possible anti-resorptive effect via pit resorption assay. Briefly, bovine cortical bone slices were cleaned and sterilized as per the manufacturer's instructions and placed in a 24-well plate. The study was carried out using OC derived from either RAW 264.7 differentiation or murine hematopoietic stem cells (mHSCs).
Using OCs from RAW 264.7 cells, the detached pre-OC cells were seeded on top of the sanitized bovine cortical bone slice using 1.5×10^5 cells/cm^2 supplemented with a complete growth medium on day 0. […] Subsequent treatment with complete media containing RANKL occurred every two days for seven days. After seven days, the wells were aspirated and processed for further analysis.
To assess the osteoclastic resorptive effect of the wells with or without treatment, the bone slices were fixed with 10% formaldehyde and initially TRAP-stained, as reported. The bone slices were thoroughly cleaned with cotton swab and strained with 0.5% toluidine blue stain and incubated for three minutes at room temperature. The slices were then washed with water five times and patted dry. The pits formed on the bone slices, depicting OC function, were evaluated.

Cathepsin K (CTSK) = assay: CTSK ELISA of cell media during bone resorption, RAW 264.7; type: cell-based, mouse; parameters: dose or concentration left out as unconfirmed
Procedure: Cathepsin K (CTSK) assay was conducted during bone resorption studies (as described above) as a useful tool to assess the effects of GaMH treatment on OC function. Supernatant from treated/untreated wells after the third treatment of differentiation factors was collected and spun down at 2000g for 10 minutes at 4° C. The supernatant was then assessed for its CTSK concentration using the mouse CTSK/Cathepsin K Sandwich ELISA kit as per manufacture protocol.

[2] = In-vivo toxicity of GaAcAc solution based on weight of animals; details: 100 μL of 100 μg/mL subcutaneously 1-3×/week for 4 weeks
Procedure: Groups included in the study are: control: No injections; 1×/week: 100 μL of 100 μg/mL Ga solution injected subcutaneously in the back once per week for 4 weeks; 2×/week: 100 μL of 100 μg/mL Ga solution injected subcutaneously in the back twice per week for 4 weeks; 3×/week: 100 μL of 100 μg/mL Ga solution injected subcutaneously in the back three times per week for 4 weeks.

cFos, NFAT2, TRAF6, TRAP = assay: Western blotting of OC differentiation markers; type: cell-based, murine; details: vs positive control (RANKL)
Procedure: To investigate the effects on OC differentiation, Pre-OC (RAW 264.7) cells were seeded, treated, and differentiated with various treatments as described under OC differentiation. Afterward, cells were lysed with 100 μL of RIPA buffer containing protease inhibitor. The lysates were collected and centrifuged at 1500 RPM for 10 minutes and analyzed for their protein content via the BCA protein assay kit. Protein samples (20 μg) were separated via 10% SDS-page gel and transferred onto a polyvinylidene fluoride (PVDF) membrane. The membrane was blocked with a respective blocking buffer, either 5% BSA or non-fat dry milk, for an hour. After blocking, the membranes were washed with 1× TBST buffer and later probed with primary antibodies; NFAT2, TRAP, TRAF6 and cFos with GAPDH as a loading control, diluted with 2% respective blocking buffer overnight at 4° C., followed by a 1-hour incubation with secondary HRP conjugated anti-rabbit IgG secondary antibody. The blots were visualized using the Fluorchem system.

RAW 264.7 cells [3] = assay: OC differentiation of RAW 264.7 cells with RANKL (TRAP activity, OC count, TRAP staining); type: cell-based, murine; details: for TRAP activity: vs positive control (RANKL alone); for number of TRAP-stained OCs (OC count): vs positive control, p<0.0001
Procedure: Pre-osteoclast (RAW 264.7) cells were differentiated by treating the cells with culture media supplemented with or without different concentration of F127 hydrogel (HG) leachates and 30 ng/ml RANKL. The cells were then assessed for TRAP activity and stained. (A) TRAP activity; (B) OC count. Only cells which have 3 or more nuclei and were TRAP stained, i.e., pink color were counted. Each data point represents Mean±SD; n=4 wells. *** p<0.0001, *p<0.01 vs RANKL.
RAW 264.7 (Pre-OC) cells were seeded at a density of 1.5×10^5 cells/cm^2 (day 0) in a 24-well bottom dish of an insert plate and incubated overnight for adherence. Subsequently, (day 1), cells were treated with growth media supplemented with 30 ng/ml of RANKL (positive control) alone or RANKL (30 ng/ml) together with various treatments-GaAcAc solution, MH, or GaMH. […] After the initial treatment and RANKL supplementation, cells in all treatment groups (except untreated control) received RANKL supplementation on day 3 to induce OC formation. On day 4, mature OCs were fixed at 4% paraformaldehyde for 10 minutes at room temperature and evaluated for the extent of OC differentiation based on tartrate-resistant acid phosphatase (TRAP) activity and stained with TRAP staining solution. TRAP (pink colored) stained and multinucleated (≥3 nuclei) cells according to earlier reported methods. Abdelmagid et al., J Biol Chem, 290(33): p. 20128-46 (2015).

RAW 264.7 cells [4] = assay: Biocompatibility (MTT cell viability) of GaAcAc in pre-osteoclastic cells; type: cell-based, murine; details: GaAcAc 10-50 μg/mL, 37° C., vs untreated control
Procedure: as §1, §2

[5] = system: OC differentiation and function; details: earlier studies; cited from earlier work
[6] = In-vivo retention by IVIS imaging with ICG marker; parameters: species or system BALB/c mice
Procedure: In-vivo retention studies were carried out in healthy BALB/c mice using indocyanine green (ICG) as the marker with monitoring via the in-vivo imaging system (IVIS) Lumina XRMS series III (PerkinElmer, USA). All animal studies were performed according to a protocol approved by the Institutional Animal Care and Use Committee of Northeast Ohio Medical University.
All treatments were administered by a single periosseous (intramuscular, bone adjacent) injection in the lower right hindlimb. The animals were observed via IVIS at a selected time point to obtain total radiant efficiency of the injection site with an excitation set at 780 nm and emission at 845 nm based on the earlier reported method. Okubo et al., International Journal of Pharmaceutics, 575: p. 118845(2020 ).

SMILES: CC(=O)/C=C(/C)[O][Ga]([O]/C(C)=C\C(C)=O)[O]/C(C)=C\C(C)=O [GaAcAc, gallium acetylacetonate]
- viability of pre-OB cells (MC3T3 cells): did not affect the viability
- GaAcAc concentrations with significant inhibition of OC differentiation and OC count ([1]; dose-dependent, p<0.0001): greater than 25 μg/mL
- OC differentiation and OC counts ([1]; mHSCs): suppressed OC differentiation and OC counts
- resorption pits on bone slices (OCs from RAW 264.7 cells; 10 μg/mL GaAcAc): slightly reduced
- number of pits formed (OCs from RAW 264.7 cells; 50 μg/mL): significantly decrease the number of pits formed
- reduction in level of CTSK (Cathepsin K (CTSK); 50 GaAcAc solution): 4 times reduction
- reduction in CTSK concentration (Cathepsin K (CTSK); GaAcAc solution (10)): 1.4 times reduction
- toxicity based on weight of animals [2]: did not show detectable toxicity
- expression levels of OC differentiation markers (cFos, NFAT2, TRAF6, TRAP; 10 μg/mL GaAcAc): slight decrease in expression levels
- expression levels of OC differentiation markers (cFos, NFAT2, TRAF6, TRAP; 50 μg/mL GaAcAc): downregulation of expression levels
- TRAP staining (representative images) (RAW 264.7 cells [3]; 10 μg/mL): decrease in TRAP-stained cells
- TRAP activity (RAW 264.7 cells [3]; 10 μg/mL): remarkable decrease in TRAP activity
- number of TRAP-stained OCs (OC count) (RAW 264.7 cells [3]; 10 μg/mL): significant reduction in the number of OCs
- TRAP staining (representative images) (RAW 264.7 cells [3]; 50 μg/mL): complete absence of multinucleated and TRAP-stained cells
- TRAP activity (RAW 264.7 cells [3]; 50 μg/mL): remarkable decrease in TRAP activity
- number of TRAP-stained OCs (OC count) (RAW 264.7 cells [3]; 50 μg/mL): significant reduction in the number of OCs
- viability of pre-OC cells (RAW 264.7 cells [4]): did not affect the viability

SMILES: O=[N+]([O-])[O-].O=[N+]([O-])[O-].O=[N+]([O-])[O-].[Ga+3] [GaN, gallium nitrate]
- OC differentiation and function [5]: effectively inhibit OC differentiation and function without affecting OBs

SMILES: CC1(C)C(/C=C/C=C/C=C/C=C2\N(CCCCS(=O)(=O)O)c3ccc4ccccc4c3C2(C)C)=[N+](CCCCS(=O)(=O)[O-])c2ccc3ccccc3c21 [ICG, Indocyanine green]
- fluorescent intensity at injection site ([6]; 8 hrs post-injection, single periosseous injection): diminished
- fluorescent intensity at injection site ([6]; 24 hrs post injection): completely disappeared
